Experiments:
[1] = biological target: Human immunodeficiency virus type 1 integrase (Human immunodeficiency virus 1, UniProt Q7ZJM1); assay: Inhibition of strand transfer activity in HIV1 integrase
[2] = system: Human immunodeficiency virus 1; assay: Antiviral activity against HIV1 3B in MT4 cells; type: functional, organism-based; conditions: Human immunodeficiency virus 1, 3B
[3] = system: MT4; assay: Cytotoxicity against MT4 cells; type: functional; conditions: Homo sapiens

Chain of Human immunodeficiency virus type 1 integrase (Q7ZJM1 whole entry): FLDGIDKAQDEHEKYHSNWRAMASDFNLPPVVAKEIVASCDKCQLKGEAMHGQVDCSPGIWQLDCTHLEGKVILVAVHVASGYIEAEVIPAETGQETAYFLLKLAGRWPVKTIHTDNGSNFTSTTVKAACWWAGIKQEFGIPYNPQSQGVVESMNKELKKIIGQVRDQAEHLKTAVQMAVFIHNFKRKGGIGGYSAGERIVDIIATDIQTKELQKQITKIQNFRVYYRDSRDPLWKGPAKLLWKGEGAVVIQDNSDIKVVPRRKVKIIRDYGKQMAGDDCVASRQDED

| SMILES | IC50 [1] [nM] | IC50 [2] [nM] | CC50 [3] [nM] | EC50 [2] [nM] |
| --- | --- | --- | --- | --- |
| COc1c2c(c(O)c3ncn(Cc4ccccc4)c13)C(=O)N(Cc1ccc(F)cc1)C2 | 24000 | > 10000 | 25000 |  |
| CN(C)S(=O)(=O)Oc1c2c(c(O)c3nccnc13)C(=O)N(Cc1ccc(F)cc1)C2 | 33 |  | 2700 | 540 |
| COc1c2c(c(O)c3ncc(F)cc13)C(=O)N(Cc1ccc(F)cc1)C2 | 7.2 | 1540 | 33300 |  |
| COc1cnc2c(O)c3c(c(OC)c2c1)CN(Cc1ccc(F)cc1)C3=O | 93 |  | 2100 | 70 |
| COc1c2c(c(O)c3nccnc13)C(=O)N(Cc1ccc(F)cc1)C2 | 210 |  | 87000 | 3550 |
| CN(C)S(=O)(=O)Oc1c2c(c(O)c3ncccc13)C(=O)N(Cc1ccc(F)cc1)C2 |  |  | 1400 | 7 |
| COc1c2c(c(O)c3c1NCCN3)C(=O)N(Cc1ccc(F)cc1)C2 | 850 | > 10000 |  |  |
| COc1c2c(c(O)c3ncccc13)C(=O)N(Cc1ccc(F)cc1)C2 |  |  | 5100 |  |

Source: ChEMBL document CHEMBL1138967, “Design, synthesis, and biological evaluation of novel tricyclic HIV-1 integrase inhibitors by modification of its pyridine ring” (Bioorg Med Chem Lett, 2006)
